One data set has as its system P388 leukemia. Nature of the data set: In vivo antitumor activity against P388 leukemia (Table 8). The following applies: P388 leukemia in mice.
Data set [1] deals with B16-F10 (murine melanoma) cells. Nature of the data set: In vitro cytotoxicity (Table 14). The data set is classed as cell-based. The conditions noted are these: Mus musculus; B16-F10, 72 hours, neutral red; read-out: IC50.
Experimental: (§2) B16-F10 (murine melanoma), HCT-116 (human colon carcinoma), A549 (human lung carcinoma) and A549/VP29 (an etoposide-resistant subline of A549) were grown in Eagle's MEM (Nissui) supplemented with FCS (fetal calf serum, 10%) and non-essential amino acids (B16-F10), or in McCoy's 5A medium (Gibco) with FCS (10%), essential and non-essential amino acids, vitamins and antibiotics (HCT-116 and both of A549) at 37° C. under a humidified atmosphere in a 5% CO2 incubator. Exponentially growing B16-F10, HCT-116 and A549 cells were harvested, counted and suspended in the culture medium at 1.5×10^4, 3×10^4 and 3×10^4 cells/ml, respectively. After planting 180 μl of cell suspension into wells of a 96-well microtiter plate on day 0, the test materials (20 μl) were added on day 1 and the plates were incubated for 72 hours. The cytotoxic activity was colorimetrically determined at 540 nm after staining viable cells with neutral red solution.
Data set [2] deals with HCT-116 (human colon carcinoma) cells. Nature of the data set: In vitro cytotoxicity (Table 14). The data set is classed as cell-based. The conditions noted are these: HCT-116, 72 hours, neutral red, read-out: IC50.
Experimental: as §2
Data set [3] relates to A549 (human lung carcinoma) cells. The data set is described as follows: In vitro cytotoxicity (Table 14). The data set is classed as cell-based. The following applies: A549, 72 hours, neutral red, read-out: IC50.
Experimental: as §2
The test system of data set [4] is DNA biosynthesis in L1210 leukemia cells. Nature of the data set: Inhibition of macromolecule biosynthesis, DNA (Table 15). The data set is classed as cell-based, murine. The protocol: (§1) Inhibitory effects of the above compounds on macromolecule (DNA, RNA and protein) biosynthesis were determined in cultured L1210 murine leukemia cells. The cells (5×10^5 cells/ml) were incubated with the test materials at 37° C. for 15 minutes and then further incubated for 60 minutes after the addition of labeled precursor, ^3 H-thymidine, ^14 C-uridine or ^3 H-leucine into the cultured mixture. After washing with chilled 5% trichloroacetic acid solution, the radioactivity incorporated into the acid-insoluble fraction of the cells was determined with a liquid scintillation counter.

The test system of data set [5] is RNA biosynthesis in L1210 leukemia cells. Nature of the data set: Inhibition of macromolecule biosynthesis, RNA (Table 15). The data set is classed as cell-based, murine. The following applies: Mus musculus, labeled precursor, 15 min + 60 min, 37° C., read-out: IC50, RNA synthesis. The protocol:
as §1

The test system of data set [6] is protein biosynthesis in L1210 leukemia cells. Nature of the data set: Inhibition of macromolecule biosynthesis, protein (Table 15). The format is cell-based, murine. The following applies: Mus musculus, labeled precursor, 15 min + 60 min, 37° C., read-out: IC50, protein synthesis. How it is done: as §1
A further data set in a line: Solubility. The data set is classed as physicochemical.
Data set [7] concerns A549/VP29 (etoposide-resistant subline of A549) cells. Nature of the data set: In vitro cytotoxicity (Table 14).
Experimental: (§3) After planting 180 μl of cell suspension into wells of a 96-well microtiter plate on day 0, the test materials (20 μl) were added on day 1 and the plates were incubated for 72 hours. The cytotoxic activity was colorimetrically determined at 540 nm after staining viable cells with neutral red solution.
The subject of data set [8] is murine and human tumor cell lines. The data set is described as follows: In vitro cytotoxicity, overall statement. The conditions noted are these: murine and human tumor cell lines.
Experimental: as §3
In the next data set the test system is fungi. The data set is described as follows: In vitro antifungal activity, overall statement. The conditions noted are these: various fungi.

One may read the IC50 as the concentration that inhibits the measured activity by half.

In brackets after ≈: the same amount, converted by molar mass. Where only a bound is given, the exact number is not on record here.

Experimental for fungi: In vitro antifungal activity was determined against various fungi by the serial agar dilution method. Sabouraud dextrose agar (pH 7.0) was used for the experiment. The inoculum size was adjusted to 10^6 CFU/ml. After incubation at 28° C. for 40 hours, the minimum inhibitory concentration (MIC) was examined.

With `CCCCC/C=C/C=C\C=C/C(O)C(C)C(O)C/C=C/C1OC(=O)C=CC1O` (stereo not shown) [BU-3285T desulfate], in the data set with P388 leukemia, the “in vivo antitumor activity” value is reported as “not active”. Moreover, the IC50 in [1] is 14 µg/mL (≈ 35.8 µM); in [2], 5.5 µg/mL (≈ 14.1 µM); in data set [3], 13 µg/mL (≈ 33.3 µM); in data set [4] (Mus musculus, L1210, labeled precursor, 15 min + 60 min, 37° C., read-out: IC50, DNA synthesis), more than 100 µg/mL; in data set [5], 6.1 µg/mL; in [6], 8.1 µg/mL. Also, the IC50 in data set [7] (A549/VP29, 72 hours, neutral red) was 15 µg/mL (≈ 38.4 µM). The “inhibitory effect on DNA synthesis” value in data set [4] (at 100 μg/ml, the highest concentration tested) was “no significant inhibitory effect”. The solubility in acetone entry in “Solubility” (acetone) was “soluble”. Moreover, the “solubility in carbon tetrachloride” value in “Solubility” (carbon tetrachloride) was “insoluble”. The “solubility in dimethyl sulfoxide” value in the data set “Solubility” (dimethyl sulfoxide) was “soluble”. Moreover, the solubility in ethanol entry in “Solubility” (ethanol) was “soluble”. Moreover, the solubility in methanol entry in “Solubility” (methanol) is “soluble”. Further, the solubility in n-hexane entry in “Solubility” (n-hexane) was “insoluble”. In addition, the solubility in water entry in the data set “Solubility” (water) is on record as “slightly soluble”. Also, the “cytotoxicity against resistant A549/VP29 compared with parent cell line” value in data set [7] (vs A549 parent) was “almost the same cytotoxicity”. The cytotoxicity in vitro entry in data set [8] is “quite active”. For the same molecule, in the data set on fungi, the “antifungal activity in vitro” value is “no activity against fungi in vitro”.
